Tests used:
[1] = tested on: 4T1 cells; experiment: 4T1 breast cancer syngeneic mouse model; type: in vivo, Balb/c mice; conditions: 4T1 model; IMG-321 20 mg/kg b.i.d. combined with gemcitabine 3 mg/kg once every 10 days
Procedure: Female Balb/c mice (5-6 weeks old) were purchased from Charles River Laboratories (Hollister, Calif.). Animals were housed and treated in accordance with Institutional Animal Care and Use Committee guidelines. For the generation of 4T1 breast cancer model, 1×10^5 4T1 cells were injected orthotopically into the mammary fat pad. For the generation of lung cancer model, 1×10^5 LLC cells were injected subcutaneously. For the generation of murine melanoma model, 1×10^5 B16-F10 cells were injected subcutaneously. Test compounds were administered by I.P. injection in a dose range of 10-100 mg/kg starting on study day 1 (7 days after tumor implantation). Control groups received vehicle (water) twice daily by I.P. injection. Tumor volume measured by digital caliper (length×width×width/2) and body weight were recorded three times per week. Animals were euthanized when tumors necrotized or volumes reached 2000 mm3.
One-way Anova, student's T test, and Mann-Whitney test performed by GraphPad5 PRISM software (GraphPad Software, Inco, San Diego, Calif., USA) were used according to different experimental conditions. P value<0.05 was considered statistically significant. Significance is indicated in the figures by asterisks *p<0.05, **p<0.01.
Female Balb/C mice (8 weeks old) were injected with 1×10^5 4T1 cells into the mammary fat pad. […] Tumor volume was measured by digital caliper (length×width×width/2). […]

[2] = target: T1, MIF (Homo sapiens, UniProt P14174); experiment: MIF tautomerase assay using pHPP as substrate; type: biochemical; conditions: inhibition of the MIF enzyme in vitro; mean of multiple test results; read-out: Tautomerase Inhibition pIC50 (converted)
T1 sequence (P14174 2-115 limits assumed): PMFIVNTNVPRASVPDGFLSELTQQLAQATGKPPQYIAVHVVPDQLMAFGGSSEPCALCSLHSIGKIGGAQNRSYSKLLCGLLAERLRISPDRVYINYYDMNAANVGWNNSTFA
How it was run: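 Mean pIC50 derived from initial rates (absorbance progress-curve slopes) of MIF-catalyzed ketonic-to-enolic pHPP conversion, read as enol–borate complex. Reactions contained 1.5 mM substrate and 3 nM enzyme (final), 200 mM boric acid stock buffer, BSA and CHAPS, pH 6.0.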

[3] = tested on: BV2 cells; experiment: BV2 cell proliferation assay (CCK-8); type: cell-based; conditions: Mus musculus, BV-2, 48 h treatment, FIGS. 6-8, read-out: pIC50 BV2 cell proliferation (converted)
Source text: The assay measures the ability of a compound to inhibit cell proliferation using Cell Counting Kit-8 (CCK-8), which allows sensitive colorimetric assays for the determination of cell viability in cell proliferation and cytotoxicity assays. The highly water-soluble tetrazolium salt, WST-8, is reduced by dehydrogenase activities in cells to give a yellow-color formazan dye, which is soluble in the tissue culture media. The amount of the formazan dye, generated by the activities of dehydrogenases in cells, is directly proportional to the number of living cells.
The assay was performed based on the instruction of the manufacture (Dojindo Molecular Technologies Inc., Rockville, Md., USA). To start the assay, BV2 cells were seeded at a density of […] into 96-well plates and treated with test compounds, which were used at a top final assay concentration of 33.3 μM, diluted in assay medium with 1:3 dilutions to produce 10 point concentration responses, for 48 h. After incubation, the CCK-8 solution (10 μl) was added to each well of the plate and the plates were incubated in incubator at 37° C. for 3 h. Absorbance was recorded three times independently using a microplate reader (Bio-Rad Laboratories, Richmond, Calif., USA) at 450 nm.
(§1) Selected examples were tested in the BV2 cell proliferation assay. The data mentioned below represents a mean pIC50 value of multiple test results. It is understood that the data illustrated below may have reasonable variation depending on the specific conditions and procedures used by the person conducting the testing.

[4] = target: T2, biotinylated human MIF / MIF receptor ectodomain (sCD74) (Homo sapiens, UniProt P14174); experiment: MIF-CD74 binding assay; conditions: FIGS. 9-12; read-out: pIC50 MIF-CD74 binding (converted)
T2 construct: made in house
T2 sequence (P14174 2-115 limits assumed): T1 sequence (P14174 2-115 limits assumed)
Procedure: The assay measures the ability of a compound to inhibit the binding of MIF with its receptor CD74 in vitro. 96-well plates were coated with recombinant MIF receptor ectodomain (sCD74=CD7473-232), washed 4 times, and blocked with Superblock (Pierce Biotechnology) at 4° C. overnight. Test compounds, which were used at a top final assay concentration of 33.3 μM, diluted in assay medium with 1:3 dilutions to produce 10 point concentration responses, were pre-incubated with biotinylated human MIF (2 ng/μl) (Roche Applied Sciences) prepared recombinantly for 30 minutes at room temperature. The mixtures then were added to wells for overnight incubation at 4° C. The wells were washed 4 times and strepavidin-conjugated alkaline phosphatase (R&D Systems) was added for one hour incubation at room temperature. After additional washes, 60 μl/well of p-nitrophenyl phosphate (Sigma) substrate was added. Absorbance at 405 nm was plotted as percent A405 relative to wells containing biotinylated human MIF alone. Each plot represented at least three independently performed assays, and each data point depicts a SEM≤10%. Each test compound was analyzed over 10-12 concentrations, and over a ˜500-fold concentration range.
as §1, with “MIF-CD74 binding” for “BV2 cell proliferation”

Row | Compound | IC50 [2] [µM] | IC50 [4] [µM] | breast cancer growth (tumor volume), combination [1] | IC50 [3] [µM]
1 | Nc1ccn([C@@H]2O[C@H](CO)[C@@H](O)C2(F)F)c(=O)n1 [Gemcitabine, gemcitabine] | – | – | Synergistically Inhibited Breast Cancer Growth | –
2 | Oc1ccc(N2CCN(c3nc(NCC4CC4)c4ncn(-c5cccnc5)c4n3)CC2)cc1 [Example 95, 4-(4-(6-((cyclopropylmethyl)amino)-9-(pyridin-3-yl)-9H-purin-2-yl)piperazin-1-yl)phenol] | 1 to 9.77 | – | – | 6.92
3 | Nc1nc(N2CCN(c3ccc(O)cc3)CC2)nc2c1ncn2-c1cncnc1 [Example 81, 4-(4-(6-amino-9-(pyrimidin-5-yl)-9H-purin-2-yl)piperazin-1-yl)phenol] | 1 to 9.77 | – | – | 23.1

Further lines, with some results ahead:

Row | IC50 [2] [µM] | IC50 [4] [µM] | Compound | breast cancer growth (tumor volume), combination [1] | IC50 [3] [µM]
4 | 0.01 to 0.0977 | – | Nc1nc(N2CCN(c3ccc(O)cc3)CC2)nc2c1ncn2-c1ccncc1 [Example 80, 4-(4-(6-amino-9-(pyridin-4-yl)-9H-purin-2-yl)piperazin-1-yl)phenol] | – | 5.02
5 | 0.1 to 0.977 | 2.61 | Nc1nc(N2CCN(c3ccc(O)cc3)CC2)nc2c1ncn2-c1cccnc1 [Example 115, 4-(4-(6-amino-9-(pyridin-3-yl)-9H-purin-2-yl)piperazin-1-yl)phenol] | – | –
